Assay type in all cases: cell-based
One series concerns HeLa CD4 LTR β-gal cells. As to the kind of experiment: Compound toxicity in the attachment assay, sister plate, XTT or MTS (Example 2). Here is the method: (§1) This assay detects compounds that block virus attachment using HeLa CD4 LTR β-gal cells. HeLa CD4 LTR β-gal cells were cultured with selection antibiotics. Twenty-four h prior to initiation of the assay, the cells were trypsinized, counted and plated in a 0.2 cm well in media without selection antibiotics. At 24 h media is removed and compound in media placed on the cells and incubated for 15 min at 37° C. A known titer of the IIIB strain of HIV-1 was then added to the wells and the incubation continued for 1 to 2 h. At the end of the incubation the wells were washed 2 times with media and the culture continued for 40 to 48 h. At termination of the assay, media is removed and β-galactosidase enzyme expression determined by chemiluminescence per manufacturer's instructions (Tropix Gal-screen, Bedford Mass.). Compound toxicity is monitored on a sister plate by XTT or MTS dye reduction. All determinations are performed in triplicate with serial_Log10 dilution of the test materials. The virus adsorption interval of 1 to 2 h was sufficiently short that AZT, which requires phosphorylation to achieve its active tri-phosphate form (AZT-TTP), is not active in this assay.
On the technique in general: Tetrazolium assays rely on reduction of a dye to a coloured formazan, in cell work by metabolically active cells.

Series [1] concerns interaction of HIV gp 120 with CD4 (HeLa CD4 LTR β-gal / HL2/3 cell fusion). As to the kind of experiment: HeLa CD4 LTR β-gal/HL2/3 HIV-1 fusion assay (Experimental Example 1). Conditions: fusion assay. The text has this:
This assay uses the HeLa CD4 LTR β-gal and HL2-3 cells available from the AIDS Research and Reference Reagent Repository. The fusion assay utilizes HeLa CD4 LTR β-gal cells with HL2/3 cells as a fusion partner via the interaction of HIV gp 120 with CD4. HL2/3 cells express HIV-1 Env on their cell surface and contain an HIV-1 Tat expression cassette. Upon syncytium formation and plasma membrane fusion, cytoplasmic mixing of the HL2/3 and HeLa CD4 LTR b-gal cell contents results in the transactivation of the LTR and β-Galactosidase expression is then directly related to […] cell membrane fusion. Thus, these two mechanistic assays can be used to confirm and identify a virus entry-based target of the compound. Additionally, because the attachment assay uses cell-free virus this assay can be used to show applicability to cell-free virus transmission.
Twenty-four h prior to initiation of the assay cells were trypsinized, counted and 5×10^3 cells placed in a 0.2 cm well in media without selection antibiotics. To initiate the fusion assay HeLa CD4 LTR β-gal (5×10^3 cells per 0.2 cm well) were incubated with compound for 1 h at 37° C. HL2/3 cells (5×10^3) were added to the 0.2 cm well and the incubation continued for 48 h. At 48 h the wells were washed 1 time with PBS and β-galactosidase enzyme expression determined by chemiluminescence per manufacturers instructions (Tropix Gal-screen™, Tropix, Bedford, Mass.). Compound toxicity was monitored on sister plates using MTS dye reduction.
In addition to assessing inhibition of attachment with HeLa CD4 LTR β-gal cells a virus fusion assay was perfoed using HeLa CD4 LTR β-gal and HL2/3 cells. No timed addition of compound was employed, but rather the assay was performed to verify the effects of the compounds on the HeLa CD4 LTR β-gal cells β-galactosidase expression.

Series [2] has as its system cell-to-cell fusion mediated by HIV-1 Env and CD4. Briefly: Fusion assay, HeLa CD4 LTR β-gal and HL2/3 cells (Experimental Example 2). The following applies: Human immunodeficiency virus 1, HL2/3, read-out: Fusion Assay IC50. On the procedure:
The fusion assay assesses the ability of compounds to block cell-to-cell fusion mediated by HIV-1 Env and CD4 expressed on separate cells. This assay is sensitive to inhibitors of both the gp 120/CD4 interaction and inhibitors of the X4 coreceptor. HeLa CD4 LTR β-gal cells were plated in microtiter wells and diluted compounds are added and allowed to incubate at 37° C. for 1 hr prior to the addition of HL2/3 cells. The incubation was then continued for 40 to 48 h, after which fusion is monitored by measurement of β-galactosidase enzyme expression, detectable by chemiluminescence (Tropix Gal-screen, Tropix, Bedford, Mass.). Compound toxicity is monitored on a sister plate using XTT or MTS dye reduction. All determinations are performed in triplicate with serial_Log10 dilution of the test materials.

A further series concerns IIIB strain of HIV-1. Briefly: Virus attachment assay, HeLa CD4 LTR β-gal cells (Experimental Example 2). The following applies: Human immunodeficiency virus 1, IIIB, HeLa, read-out: Attachment Assay IC50. On the procedure: as §1, with “materials.” for “materials. The virus adsorption interval of 1 to 2 h was sufficiently short that AZT, which requires phosphorylation to achieve its active tri-phosphate form (AZT-TTP), is not active in this assay.”

A short description of series [3]: Compound toxicity in the attachment assay, sister plate, XTT or MTS (Example 2). Conditions: human, HeLa CD4 LTR β-gal cells, read-out: Attachment Assay TC50. On the procedure:
as §1

This note sets out measurements from US20030232101A1, “Topical formulations of resorcinols and cannibinoids and methods of use” (Immugen Pharmaceuticals, Inc., priority 2002, published 2003).

The structures appear in SMILES notation.

For the compound `Cc1ccc2c(c1)-c1c(O)cc(C(C)(C)CCCC(C)C)cc1OC2(C)C` [IMG511, 3-Norpentyl-3-(1,1,5-trimethylhexyl)cannabinol], the “Attachment Assay TC50” value in the series on HeLa CD4 LTR β-gal cells is above 67 µM. In addition, the “Comments: suppression of β-galactosidase activity” value (shortened to “Comments: suppression”) in series [1] is reported as “Suppression of β-galactosidase”. Besides, the half-maximal inhibitory concentration (IC50) in series [2] is 920 nM; in the series with IIIB strain of HIV-1, 46.3 µM.
For the compound `CC1=CCC2C(C1)c1c(O)cc(C(C)(C)CCCC(C)C)cc1OC2(C)C` (stereo not drawn) [IMG509, 3-Norpentyl-3-(1,1,5-trimethylhexyl)-Δ8-tetrahydrocannabinol], in series [3], the CC50 was above 10 µM. Besides, the “Comments: suppression” value in series [1] is “Suppression of β-galactosidase”. In addition, the 50% inhibitory concentration (IC50) was found to be 1210 nM in series [2] and 48.4 µM in the series on IIIB strain of HIV-1.
Turning to `C=C(C)[C@@H]1CCC(C)=C[C@H]1c1c(O)cc(CCCCC)cc1O` [Cannabidiol, reference compound], the “Comments: suppression” value in series [1] is reported as “Suppression of β-galactosidase”.
`Cc1c(O)cc(C(C)(C)CCCC(C)C)cc1O` [IMG510, 2-Methyl-5-(1,1,5-trimethylhexyl)resorcinol]: in series [3], the CC50 is above 10 µM. In addition, the IC50 came out at 1360 nM in series [2] and 50.8 µM in the series on IIIB strain of HIV-1.

As usually defined, the IC50 is the concentration that gives 50% inhibition.
